pIC50, pKi: −log10 of the molar value. The source made the active and inactive calls. The rule behind the calls is not given here.
Key:
[1] = biological target: T1, Kinesin-like protein KIF11 (Homo sapiens) (UniProt P52732); assay: Competitive inhibition of human Eg5 assessed as effect on ATPase activity using varying ATP levels in absence of microtubule by Lineweaver-Burke plot
T1 sequence (whole entry): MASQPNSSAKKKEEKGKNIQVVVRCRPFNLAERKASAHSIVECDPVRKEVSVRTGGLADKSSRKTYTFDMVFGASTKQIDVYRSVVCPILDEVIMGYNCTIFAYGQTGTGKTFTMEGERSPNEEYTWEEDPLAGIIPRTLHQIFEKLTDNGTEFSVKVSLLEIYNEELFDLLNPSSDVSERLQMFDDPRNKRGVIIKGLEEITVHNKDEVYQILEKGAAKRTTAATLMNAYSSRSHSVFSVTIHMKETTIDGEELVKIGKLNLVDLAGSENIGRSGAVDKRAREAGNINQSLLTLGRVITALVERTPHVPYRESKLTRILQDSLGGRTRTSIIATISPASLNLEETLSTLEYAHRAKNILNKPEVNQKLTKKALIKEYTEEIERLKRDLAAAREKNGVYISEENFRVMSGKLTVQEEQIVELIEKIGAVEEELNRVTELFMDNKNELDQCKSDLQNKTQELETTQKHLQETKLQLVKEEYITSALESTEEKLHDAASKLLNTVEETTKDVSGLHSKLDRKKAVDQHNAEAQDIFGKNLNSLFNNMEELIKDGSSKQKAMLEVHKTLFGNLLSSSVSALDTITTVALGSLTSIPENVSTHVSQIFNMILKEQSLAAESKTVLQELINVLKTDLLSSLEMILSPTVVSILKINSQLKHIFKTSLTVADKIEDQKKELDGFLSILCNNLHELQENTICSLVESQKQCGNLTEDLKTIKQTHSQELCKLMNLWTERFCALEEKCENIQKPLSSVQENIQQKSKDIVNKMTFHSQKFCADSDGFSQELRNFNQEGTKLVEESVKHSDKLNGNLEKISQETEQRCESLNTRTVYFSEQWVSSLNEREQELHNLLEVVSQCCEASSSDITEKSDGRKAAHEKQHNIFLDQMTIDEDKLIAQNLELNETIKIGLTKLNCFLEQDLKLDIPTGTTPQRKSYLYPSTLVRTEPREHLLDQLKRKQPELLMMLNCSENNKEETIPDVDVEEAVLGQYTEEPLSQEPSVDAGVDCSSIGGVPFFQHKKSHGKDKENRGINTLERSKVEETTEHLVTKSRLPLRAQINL

[2] = biological target: Kinesin-like protein KIF11 (Homo sapiens, UniProt P52732, D130V); assay: Inhibition of human KSP D130V mutant using varying ATP levels in presence of saturating levels of microtubule by Lineweaver-Burke plot
Chain of Kinesin-like protein KIF11 (Homo sapiens, UniProt P52732, D130V) (P52732 whole entry D130V): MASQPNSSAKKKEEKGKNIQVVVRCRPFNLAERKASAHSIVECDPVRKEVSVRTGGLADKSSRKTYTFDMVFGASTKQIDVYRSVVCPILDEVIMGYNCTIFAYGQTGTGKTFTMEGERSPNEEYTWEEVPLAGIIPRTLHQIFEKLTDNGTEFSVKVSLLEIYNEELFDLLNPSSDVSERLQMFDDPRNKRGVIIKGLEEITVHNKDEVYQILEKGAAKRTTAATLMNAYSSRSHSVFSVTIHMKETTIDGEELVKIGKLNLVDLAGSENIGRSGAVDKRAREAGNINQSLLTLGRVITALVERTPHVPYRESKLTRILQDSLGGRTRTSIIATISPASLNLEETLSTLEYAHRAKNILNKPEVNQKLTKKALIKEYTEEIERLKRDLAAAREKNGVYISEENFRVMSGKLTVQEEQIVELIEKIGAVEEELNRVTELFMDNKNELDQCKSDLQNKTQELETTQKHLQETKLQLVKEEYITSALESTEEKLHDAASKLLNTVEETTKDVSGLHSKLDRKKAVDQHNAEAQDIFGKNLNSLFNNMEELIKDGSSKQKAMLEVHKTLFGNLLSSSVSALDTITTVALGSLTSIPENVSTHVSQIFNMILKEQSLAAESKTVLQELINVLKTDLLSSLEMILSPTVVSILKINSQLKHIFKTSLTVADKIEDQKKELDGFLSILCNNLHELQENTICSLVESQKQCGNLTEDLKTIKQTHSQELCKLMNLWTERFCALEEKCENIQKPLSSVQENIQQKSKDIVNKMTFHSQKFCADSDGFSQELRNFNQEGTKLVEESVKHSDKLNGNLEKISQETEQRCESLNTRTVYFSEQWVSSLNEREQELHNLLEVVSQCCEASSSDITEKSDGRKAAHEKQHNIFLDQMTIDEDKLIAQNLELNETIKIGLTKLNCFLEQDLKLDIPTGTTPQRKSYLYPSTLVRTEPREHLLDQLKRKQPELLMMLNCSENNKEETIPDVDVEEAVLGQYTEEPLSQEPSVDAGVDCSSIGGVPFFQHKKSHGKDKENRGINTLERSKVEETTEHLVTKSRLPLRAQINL

HCT-116 [3] = assay: Antiproliferative activity against human HCT116 cells after 72 hrs by Cell titer Glo assay; assay type: functional, cell-based; settings: HCT-116, 72 h
HCT-116 [4] = assay: Antiproliferative activity against human HCT116 cells expressing Kinesin-like protein KIF11 D130V mutant after 72 hrs by Cell titer Glo assay; assay type: functional, cell-based; settings: HCT-116, 72 h
SK-OV-3 = assay: Induction of monopolar spindle formation in human SKOV3 cells; assay type: functional, cell-based
HCT-116 [5] = assay: Induction of monopolar spindle formation in human HCT116 cells; assay type: functional, cell-based
HCT-116 [6] = assay: Antiproliferative activity against IC50 biaryl selected drug-resistant against human HCT116 cells after 72 hrs by Cell titer Glo assay; assay type: functional, cell-based; settings: HCT-116, 72 h
HCT-116 [7] = assay: Antiproliferative activity against IC95 biaryl selected drug-resistant against human HCT116 cells after 72 hrs by Cell titer Glo assay; assay type: functional, cell-based; settings: HCT-116, 72 h
HCT-116 [8] = assay: Antiproliferative activity against 3x IC95 biaryl selected drug-resistant against human HCT116 cells after 72 hrs by Cell titer Glo assay; assay type: functional, cell-based; settings: HCT-116, 72 h
HCT-116 [9] = assay: Antiproliferative activity against IC50 biaryl selected human HCT116 cells expressing Kinesin-like protein KIF11 D130V mutant after 72 hrs by Cell titer Glo assay; assay type: functional, cell-based; settings: HCT-116, 72 h
HCT-116 [10] = assay: Antiproliferative activity against IC95 biaryl selected human HCT116 cells expressing Kinesin-like protein KIF11 D130V mutant after 72 hrs by Cell titer Glo assay; assay type: functional, cell-based; settings: HCT-116, 72 h
HCT-116 [11] = assay: Antiproliferative activity against 3x IC95 biaryl selected human HCT116 cells expressing Kinesin-like protein KIF11 D130V mutant after 72 hrs by Cell titer Glo assay; assay type: functional, cell-based; settings: HCT-116, 72 h
[12] = Inhibition of KSP A356 mutant in 3x IC95 biaryl selected human HCT116 cells using varying ATP levels in presence of saturating levels of microtubule by Lineweaver-Burke plot; assay type: cell-based; settings: hct-116
[13] = biological target: Kinesin-like protein KIF11 (Homo sapiens, UniProt P52732, I299F); assay: Inhibition of human KSP I299F mutant in 6x IC95 biaryl selected human HCT116 cells using varying ATP levels in presence of saturating levels of microtubule by Lineweaver-Burke plot; assay type: cell-based, HCT-116
Chain of Kinesin-like protein KIF11 (Homo sapiens, UniProt P52732, I299F) (P52732 whole entry I299F): as the sequence (P52732 whole entry D130V) above, with V130D, I299F counted along it

Row | Compound | inhibition [1] | pKi [2] | pIC50 (HCT-116 [3]) | pIC50 (HCT-116 [4]) | Activity (SK-OV-3) | Activity (HCT-116 [5]) | pIC50 (HCT-116 [6]) | pIC50 (HCT-116 [7]) | pIC50 (HCT-116 [8]) | pIC50 (HCT-116 [9]) | pIC50 (HCT-116 [10]) | pIC50 (HCT-116 [11]) | pKi [12] | pKi [13]
1 | O=C1CCc2cc(-c3ccc(C(F)(F)F)cc3)ccc2N1 | inactive | 8.66 | 7.44 | 9.35 | Active | Active | 7.44 | 6.79 | 5.68 | 9.08 | 8.48 | 8.16 | 6.96 | 7.18
2 | NC(=O)Nc1ccc(-c2ccc(C(F)(F)F)cc2)cc1F | inactive | 8.00 |  |  |  |  |  |  |  |  |  |  |  | 

— ChEMBL document CHEMBL1221208, “ATP-competitive inhibitors of the mitotic kinesin KSP that function via an allosteric mechanism” (Nat Chem Biol, 2007)
